Measurements published in ChEMBL document CHEMBL4840323, “Discovery of an Orally Bioavailable Small-Molecule Inhibitor for the β-Catenin/B-Cell Lymphoma 9 Protein-Protein Interaction” (J Med Chem, 2021).
Active and inactive are the calls of the source. The rule behind the calls is not given here.

Key:
[1] = test system: MDA-MB-231; experiment: Antiproliferative activity against human MDA-MB-231 cells harboring beta-catenin pcDNA3.1 vector at 20 uM measured after 72 hrs by MTS assay; format: functional, cell-based
[2] = test system: MDA-MB-468; experiment: Induction of apoptosis in human MDA-MB-468 cells assessed as early apoptotic cells at 40 uM measured after 72 hrs by annexinV-FITC/propidium iodide staining based flow cytometry (reference value: 28.9 %); format: functional
[3] = test system: MDA-MB-468; experiment: Induction of apoptosis in human MDA-MB-468 cells assessed as late apoptotic cells at 40 uM measured after 72 hrs by annexinV-FITC/propidium iodide staining based flow cytometry (reference value: 13.9 %); format: functional
[4] = AUC in C57BL/6 mouse at 1 mg/kg, iv measured after 5 mins by LC-MS/MS analysis; format: ADME, organism-based; design: route intravenous, dose 1 mg/kg, time 5 min; conditions: in vivo
[5] = Aqueous solubility of the compound; format: physicochemical; conditions: buffer
[6] = species: Mus musculus; conditions: dose 90.0 mg/kg, time 5.0 day
[7] = test system: MDA-MB-231; experiment: Induction of apoptosis in human MDA-MB-231 cells assessed as early apoptotic cells at 10 uM measured after 72 hrs by annexinV-FITC/propidium iodide staining based flow cytometry (reference value: 5.3 %); format: functional
[8] = test system: MCF-10A; experiment: cells; conditions: Homo sapiens, 72 h
Description: Cytotoxicity against human MCF-10A cells assessed as cell growth inhibition measured after 72 hrs by MTS assay

[9] = test system: MDA-MB-468; experiment: Antiproliferative activity against human MDA-MB-468 cells harboring beta-catenin pcDNA3.1 vector at 20 uM measured after 72 hrs by MTS assay; format: functional, cell-based
[10] = species: Mus musculus; conditions: dose 90.0 mg/kg, time 5.0 day; remark: listed apart in the source
[11] = test system: 4013; experiment: Antitumor activity against patient-derived 4013 cells orthotopically xenografted in SCID-Beige mouse assessed as reduction in tumor weight at 90 mg/kg, po via gavage for 5 days; format: functional, organism-based; conditions: Homo sapiens, time 5.0 day
[12] = test system: MDA-MB-468; experiment: Induction of apoptosis in human MDA-MB-468 cells assessed as late apoptotic cells at 20 uM measured after 72 hrs by annexinV-FITC/propidium iodide staining based flow cytometry (reference value: 13.9 %); format: functional
[13] = species: Mus musculus; conditions: dose 90.0 mg/kg, time 5.0 day; remark: listed apart in the source
[14] = Clearance in C57BL/6 mouse at 20 mg/kg, po via gavage measured up to 24 hrs by LC-MS/MS analysis; format: ADME, organism-based; conditions: in vivo
[15] = Oral bioavailability in C57BL/6 mouse at 20 mg/kg measured up to 24 hrs by LC-MS/MS analysis; format: ADME, organism-based; conditions: in vivo
[16] = test system: MDA-MB-231; experiment: cells; conditions: Homo sapiens, MDA-MB-231, 72 h
Description: Antiproliferative activity against human MDA-MB-231 cells assessed as cell growth inhibition measured after 72 hrs by MTS assay

[17] = test system: MDA-MB-231; experiment: Antiinvasive activity against human MDA-MB-231 cells cultured as 3D-spheroids measured after 6 days by imaging analysis; format: functional, cell-based; conditions: dose 5-40 µM, time 6.0 day
[18] = Solubility of the compound in DMSO/Tween-80/H2O (10/10/80) at 2 mg/ml; format: physicochemical
[19] = species: Mus musculus; conditions: dose 90.0 mg/kg, time 5.0 day; remark: listed apart in the source
[20] = species: Mus musculus; conditions: dose 90.0 mg/kg, time 5.0 day; remark: listed apart in the source
[21] = test system: MCF-10A; experiment: Induction of apoptosis in human MCF-10A cells assessed as late apoptotic cells at 20 uM measured after 72 hrs by annexinV-FITC/propidium iodide staining based flow cytometry (reference value: 13.9 %); format: cell-based
[22] = test system: SW480; experiment: cells; conditions: Homo sapiens, SW480, 72 h
Description: Antiproliferative activity against human SW480 cells assessed as cell growth inhibition measured after 72 hrs by MTS assay

[23] = test system: SW480; experiment: Downregulation of HPRT mRNA expression in human SW480 cells at 10 to 40 uM measured after 24 hrs by qRT-PCR analysis; format: functional, cell-based; conditions: dose 10-40 µM
[24] = test system: MCF-10A; experiment: Induction of apoptosis in human MCF-10A cells assessed as late apoptotic cells at 40 uM measured after 72 hrs by annexinV-FITC/propidium iodide staining based flow cytometry (reference value: 13.9 %); format: cell-based

AUC [4]: 710 nM·h | solubility [5]: > 3000 µM | CL/F [14]: 3.07 L/h/kg | F [15]: 83% | IC50 [16]: 28 µM | solubility [18]: Soluble | IC50 [22]: 24 µM
SMILES: CC(C)(Oc1cccc(N2CCC[C@@H](C(=O)N(Cc3ccc(-c4cn[nH]c4)cc3)C3CC3)C2)c1)C(=O)N1CCNCC1.Cl
Activity [1]: inactive | Activity [2]: 53.5% | Activity [3]: 33.4% | inhibition [6]: Active | Activity [7]: 5.4% | IC50 [8]: 92 µM | Activity [9]: inactive | inhibition [10]: Active | Activity [11]: inactive | Activity [12]: 24.6% | inhibition [13]: Active | Activity [17]: Dose-Dependent Effect | inhibition [19]: Active | inhibition [20]: Active | Activity [21]: 17.3% | Activity [23]: inactive | Activity [24]: 15.3%
